Measured values: US20200339509A1, “Non-Coordinating Anion Type Indolinium Activators in Aliphatic and Alicyclic Hydrocarbon Solvents” (ExxonMobil Chemical Patents Inc., priority 2019, published 2020)
Values joined by “and” are separate entries in the source; they are usually repeats but may differ in a detail not shown here. Equal values may be shown once.

Legend:
[1] = Solubility study of the activators (saturated solution in aliphatic/alicyclic solvent); assay type: physicochemical; conditions: 25° C., concentration of saturated solution; for Solubility limit in MeCy: MeCy (methylcyclohexane)
Experimental: The solubility was determined using a saturated solution of the activator prepared by slowly adding the solvent to a pre-weighed amount of the activator. The final volume was determined as the minimum amount of solvent required to convert the heterogenous mixture into a homogeneous solution. The concentration of the saturated solution is presented in millimoles of activator per liter of solution (mM). Alternatively, a mixture of the activator was prepared by adding the solvent to an excess amount of activator. The resulting slurry was separated from the undissolved solids by decanting the mixture into a tared vial. Solvent was then added dropwise until the mixture became a homogeneous solution. The mass of the final solution was measured and then the solvent was evaporated to dryness to obtain the mass of the activator. The concentration of the saturated solution is presented in millimoles of activator per liter of solution (mM).

[2] = Propylene homopolymerization in parallel pressure reactor with the indicated activator; conditions: propylene polymerization; 30 nmol catalyst MCN-1, 1.1 equivalents activator, 100° C., 150 psi propylene
Experimental: Solutions of the metal complexes and activators were prepared in a drybox using toluene or methylcyclohexane. Concentrations were typically 0.2 mmol/L. Tri-n-octylaluminum (TNOAL, neat, AkzoNobel) was used as a scavenger as indicated. Concentration of the TNOAL solution in toluene ranged from 0.5 to 2.0 mmol/L.
Polymerizations were carried out in a parallel pressure reactor according to common laboratory techniques, as generally described in U.S. Pat. Nos. 6,306,658; 6,455,316; 6,489,168; WO 00/09255; consistent with the procedures described by Murphy, V. et al. (2003) “A Fully Integrated High-Throughput Screening Methodology for the Discovery of New Polyolefin Catalysts: Discovery of a New Class of High Temperature Single-Site Group (IV) Copolymerization Catalysts,” J. Am. Chem. Soc., v. 125, pp. 4306-4317, each of which is fully incorporated herein by reference. The experiments were conducted in an inert atmosphere (N2) drybox using autoclaves equipped with an external heater for temperature control, glass inserts (internal volume of reactor=23.5 mL for C2 and C2/C8; 22.5 mL for C3 runs), septum inlets, regulated supply of nitrogen, ethylene and propylene, and equipped with disposable PEEK mechanical stirrers (800 RPM). The autoclaves were prepared by purging with dry nitrogen at 110° C. or 115° C. for 5 hours and then at 25° C. for 5 hours. Although the specific quantities, temperatures, solvents, reactants, reactant ratios, pressures, and other variables are frequently changed from one polymerization run to the next, the following describes a typical polymerization performed in a parallel pressure reactor. […]
The catalyst and activator solutions for the comparative data were all prepared in toluene. […] The resultant polymer was analyzed by Rapid GPC (see below) to determine the molecular weight, by FT-IR (see below) to determine percent octene incorporation, and by DSC (see below) to determine melting point (Tm).
Equivalence is determined based on the mole equivalents relative to the moles of the transition metal in the catalyst complex. […]

Molecule	Solubility limit in MeCy [1] [µM]	Solubility limit in i-hexane [1] [µM]	activity [2]
C[NH+](C)c1ccccc1.Fc1c(F)c(F)c([B-](c2c(F)c(F)c(F)c(F)c2F)(c2c(F)c(F)c(F)c(F)c2F)c2c(F)c(F)c(F)c(F)c2F)c(F)c1F [DMAH-BF20, N,N-Dimethylanilinium tetrakis(pentafluorophenyl) borate, reference compound]	<100	<100	
N,N-dimethyl anilinium tetrakis(heptafluoronaphthalen-2-yl)borate [DMAH-BF28, reference compound]			126 kg/mmol/h and 182 kg/mmol/h and 196 kg/mmol/h and 164 kg/mmol/h
CCCCCCCCCCC1C[NH+](C)c2ccccc21.Fc1c(F)c(F)c2c(F)c([B-](c3c(F)c(F)c4c(F)c(F)c(F)c(F)c4c3F)(c3c(F)c(F)c4c(F)c(F)c(F)c(F)c4c3F)c3c(F)c(F)c4c(F)c(F)c(F)c(F)c4c3F)c(F)c(F)c2c1F [MDIH-BF28, 3-decyl-1-methylindolin-1-ium BF-28]	10100	1000	
1-methylindolinium tetrakis(heptafluoronaphthalen-2-yl)borate [MIH-BF28]			64 kg/mmol/h and 39 kg/mmol/h and 46 kg/mmol/h
C[NH+]1CCc2ccccc21.Fc1c(F)c(F)c([B-](c2c(F)c(F)c(F)c(F)c2F)(c2c(F)c(F)c(F)c(F)c2F)c2c(F)c(F)c(F)c(F)c2F)c(F)c1F [MIH-BF20, 1-methylindolinium tetrakis(pentafluorophenyl) borate]	5300	<100	7 kg/mmol/h
